Consider one molecule from article PMC10541198, “Specific quinone reductase 2 inhibitors reduce metabolic burden and reverse Alzheimer’s disease phenotype in mice” (The Journal of Clinical Investigation, 2023).

“And” between values parts separate entries of the source, which are not always exact repeats. Identical values can stand only once.

The subject of this assay is HCT116 cells. Description: H2DCFDA detection of cellular ROS. In kind it is cell-based, human. As to conditions: 20 μM, 3 hour, WT HCT116. As to the method: To establish direct target engagement and cell membrane permeability, a cellular thermal shift assay (CETSA) was carried out, using leading QR2is YB’s-537, 800, and 808. Following a 1 hour preincubation with 5 μM of the QR2is or vehicle, thermal aggregation curves (Taggs) of QR2 expressed in HEK293T were measured in increasing temperatures. All QR2is increased QR2 thermal stability compared with vehicle (Supplemental Figure 2A). Based on the Tagg curves we selected 73°C for isothermal dose-response fingerprint (IDTRF) experiments (Supplemental Figure 2B). The ITDRF allowed the relative quantification of the binding of each of the QR2is to QR2, measured as the EC50 (Figure 3A). […] We evaluated the safety of the QR2is using cell toxicity and viability assays. […] Cell viability was assessed by XTT assay in HEK239T cells, using a dose response, with 3- or 24-hour incubations of the leading QR2is. […] We then assessed WT HCT116 cells by immunoblot (Supplemental Figure 2, C and D), after being treated with YB-800 (2 μM) for 4 consecutive days. […]
The cells wer e har ves t ed a nd resuspended in 1% cl ear m e di um ( DM EM – with no phenol red, suppl em ent ed with 1% FBS, 1% L-Glutamine and 1% Penicillin-Streptomycin). […] The plate wa s then incubated in the dark at 37°C f or 3 h, before reading in a Tecan M200 Pro florescence microplate reader, using wavelengths Ex/Em = 485 nm / 535 nm . […]

As to `Cc1ccc(-c2cn3cccc(C)c3n2)cc1S(=O)(=O)N1CCC(C)CC1` [YB-800], the “ROS levels (replicates)” value was 0.005141 and -0.1557 and -0.2104 and -0.08593 and -0.04485.
